Legend:
[1] = xenograft study; cited from earlier work
colon cancer cell lines = conditions: NCI Anticancer Drug Screen; cited from earlier work
[2] = test system: human colon cancer cells xenografts; conditions: cited from earlier work
human colon cancer cells = conditions: cited from earlier work
[3] = test system: human gastric (SC-M1) cancer; conditions: SC-M1 in SCID mice; cited from earlier work
colon (Colo 205) cancer = conditions: Colo 205 in SCID mice; cited from earlier work

For “1,6-bis(4-(4-amino-3-hydroxyphenoxy)phenyl)diamantane [DPD]”, the acute toxicity [1] is given as “no obvious acute toxicity”, the “anticancer activity on colon cancer cell lines” value (colon cancer cell lines) is given as “marked anticancer activities” and the “in vivo anticancer activity” value [2] is given as “has in vivo anticancer activity”. For the same compound, the “cell cycle arrest and differentiation” value (human colon cancer cells) was “induced G0/G1 arrest and differentiation”.

In the case of `O=C1C=CC(=O)N1C12CC3CC(CC(C3)C1)C2` [AMI, N-1-adamantylmaleimide], the “apoptosis and tumor growth” value [3] is given as “induce apoptosis and inhibit the growth”.

In the case of `Nc1ccc(Oc2ccc(Oc3ccc(N)c(O)c3)cc2)cc1O` [Example 8, 1,4-Bis(4-amino-3-hydroxyphenoxy)benzene], the melting point is reported as > 220 °C (dec.).

With `Nc1ccc(Oc2ccccc2Oc2ccc(N)c(O)c2)cc1O` [Example 10, 1,2-Bis(4-amino-3-hydroxyphenoxy)benzene] the melting point was > 180 °C (dec.).

For dimethyladamantylmaleimide [DMAMI], the “apoptosis and tumor growth” value (colon (Colo 205) cancer) is listed as “induce apoptosis and inhibit the growth”.

— patent publication US7365231B2, “Compound with antitumor activity and preparation method therefor” (National Taiwan University of Science & Technology, priority 2005, dated 2008)
